The values that follow come from patent US10815276B2, “Cell penetrating peptides and methods of making and using thereof” (Entrada Therapeutics, Inc., priority 2014, dated 2020).

The nature of data set [1]: Serum stability test (25% human serum). The class given is in vitro ADME. Conditions: 37° C. On the procedure:
The stability tests were carried by modifying a previously reported procedure (Nguyen, L T et al. […] At various time points (0-6 h), 200-μL aliquots were withdrawn and mixed with 50 μl of 15% trichloroacetic acid and incubated at 4° C. overnight. The final mixture was centrifuged at 15,000 rpm for 10 min in a microcentrifuge, and the supernatant was analyzed by reversed-phase HPLC equipped with a C18 column (Waters). The amount of remaining peptide (%) was determined by integrating the area underneath the peptide peak (monitored at 214 nm) and compared with that of the control reaction (no serum).

For a further data set, the target named is T1, PTP1B (Homo sapiens, UniProt P18031).
T1 construct: The gene coding for the catalytic domain of PTP1B (amino acids 1-321) was amplified; made in house; host or cells: prokaryotic vector pET-22b(+)-ybbR
T1 sequence (P18031 1-321): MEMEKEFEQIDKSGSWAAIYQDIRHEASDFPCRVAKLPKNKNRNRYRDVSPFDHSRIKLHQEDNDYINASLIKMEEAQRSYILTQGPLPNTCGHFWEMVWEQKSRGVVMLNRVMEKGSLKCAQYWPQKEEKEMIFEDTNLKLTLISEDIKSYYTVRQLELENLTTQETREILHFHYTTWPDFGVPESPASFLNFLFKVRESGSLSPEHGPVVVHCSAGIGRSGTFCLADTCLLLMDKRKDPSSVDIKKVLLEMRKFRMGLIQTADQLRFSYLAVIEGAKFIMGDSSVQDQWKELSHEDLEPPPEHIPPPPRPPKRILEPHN
Nature of the data set: PTP inhibition assay (pNPP). The class given is biochemical. Conditions: pNPP 0-24 mM; read-out: K1 (competitive inhibition constant). On the procedure:
PTP assays were performed in a quartz microcuvette (total volume 150 μL). The reaction mixture contains 100 mM Tris-HCl, pH 7.4, 50 mM NaCl, 2 mM EDTA, 1 mM TCEP, 0-1 μM of PTP inhibitor, and 500 μM para-nitrophenyl phosphate (pNPP). The enzymatic reaction was initiated by the addition of PTP (final concentration 15-75 nM) and monitored continuously at 405 nm on a UV-VIS spectrophotometer. Initial rates were calculated from the reaction progress curves (typically <60 s). The half-maximal inhibition constant (IC50) was defined as the concentration of an inhibitor that reduced the enzyme activity to 50% and was obtained by plotting the rates (V) against the inhibitor concentration [I] and fitting the data against the equation
[formula] where V0 is the enzymatic reaction rate in the absence of inhibitor. […] The reaction rate (V) was plotted against the pNPP concentration ([S]) and fitted against the equation
[formula] to obtain the Michaelis constant K. The Ki value was obtained by plotting the K values against the inhibitor concentration [I] and fitted to equation
[formula] where K0 is the Michaelis constant in the absence of inhibitor ([I]=0).

Data set [2] deals with T2, Pin1 (Homo sapiens, UniProt Q13526, S16A/Y23A).
T2 construct: The full-length human S16A/Y23A mutant Pin1 was expressed and purified from E. coli; made in house
T2 sequence (Q13526 whole entry S16A/Y23A): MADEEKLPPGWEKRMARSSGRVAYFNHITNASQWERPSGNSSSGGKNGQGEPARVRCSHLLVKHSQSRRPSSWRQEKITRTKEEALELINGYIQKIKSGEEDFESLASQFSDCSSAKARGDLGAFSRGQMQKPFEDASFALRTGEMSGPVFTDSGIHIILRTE
Nature of the data set: Fluorescence anisotropy binding to Pin1. On the procedure: The gene coding for the catalytic domain of PTP1B (amino acids 1-321) was amplified by the polymerase chain reaction using PTP1B cDNA as template and oligonucleotides 5′-[…]-3′ and 5′-[…]-3′ as primers. […] Expression and purification of the ybbR-tagged PTP1B were carried out as previously described (Ren, L et al. Biochemistry 2011, 50, 2339-2356). […] The reaction mixture was passed through a G-25 fast-desalting column equilibrated in 30 mM HEPES, pH 7.4, 150 mM NaCl to remove any free dye molecules. The full-length human S16A/Y23A mutant Pin1 was expressed and purified from E. coli as previously described (Liu, T et al. J. Med. Chem. 2010, 53, 2494-2501).
FA experiments were carried out by incubating 100 nM FITC-labeled peptide with varying concentrations of protein in 20 mM HEPES (pH 7.4), 150 mM NaCl, 2 mM magnesium acetate, and 0.1% bovine serum albumin (BSA) for 2 h at room temperature. The FA values were measured on a Molecular Devices Spectramax M5 plate reader, with excitation and emission wavelengths at 485 and 525 nm, respectively. Equilibrium dissociation constants (KD) were determined by plotting the FA values as a function of protein concentration and fitting the curve to the following equation:
[formula] where Y is the FA value at a given protein concentration x, L is the peptide concentration, Qb/Qf is the correction factor for fluorophore-protein interaction, Amax is the maximum FA value when all of the peptides are bound to protein, while Amin is the minimum FA value when all of the peptides are free. FA competition assay was performed by incubating 100 nM FITC-labeled Pin1 inhibitor 5 with 1 μM Pin1, followed by the addition of 0-5 μM unlabeled inhibitor. The FA values were measured similarly on a pate reader. IC50 values were obtained by plotting the FA values against the competitor concentration and curve fitting using the four-parameter dose-response inhibition equation (Prism 6, GraphPad).

The target of data set [3] is T2, Pin1. Nature of the data set: Pin1 binding by FA (FITC-labeled peptides). Conditions: FITC-labeled peptide, FA; read-out: KD.
The test system of another data set is Jurkat cells. Nature of the data set: In cellulo fluorimetric caspase assay. The class given is cell-based. To be noted: staurosporin-treated cells, 5 μM peptide, 10-h period. On the procedure:
100 μL of Jurkat cell suspension (5×10^5 cells/mL) was seeded in 96-well plate one hour prior to the experiment. Ten μL of staurosporine stock solution (10 μM) was added into half of the wells to induce apoptosis, while 10 μL of media was added to the other wells. After 1 h incubation, caspase-3 fluorogenic substrates were added to the cells to a final concentration of 5 μM. The fluorescence of the released coumarin was measured on the Spectramax M5 plate reader with excitation and emission wavelengths at 360 and 440 nm at various times points (0-6 h). The fluorescence unit (FU) increases between induced and uninduced cells were plotted against the time to present caspase-3 activities measured using various fluorogenic substrates in living cell in real-time. Three independent sets of experiments, each performed in triplicate, were conducted.
Jurkat cells were pretreated with the kinase inhibitor staurosporin to induce caspase activities and thus apoptosis (Belmokhtar, C A et al. Biochem. J. 1996, 315, 21). These cells were then incubated with peptides 3-7 and the amount of Amc released was monitored at various time points (0-10 h). […] Peptide 4 produced the fastest fluorescence increase, reaching 459 fluorescence units (FU), followed by peptides 7 and 6. […] This slow rate of AMC release can be attributed to hydrolysis by other intracellular proteases and peptidases. Consistent with this interpretation, pretreatment of Jurkat cells with a pancaspase inhibitor Z-VAD(OMe)-FMK (Slee, E A et al. Biochem J. 1996, 315, 21) followed by incubation with peptide 4 released AMC at a rate that was similar to that of peptide 5 alone. One explanation of the above observations is that both peptides 4 and 5 can enter the cell interior efficiently, but only peptide 4 can be converted into the linear caspase substrate inside the cells.

A further data set relates to HeLa cells. Nature of the data set: FACS uptake of FITC-labeled peptides. The class given is cell-based, human. Conditions: 5 μM, 2 h.

Starred links: 1 amine or outer side, 2 acyl side, 3 side chain; linkers in the order of their positions; H or OH if unused. Positions of bridges follow the written chain, without caps; N, C: chain ends. Non-standard residues stand in square brackets, D forms with d. Residues, ends and D or L forms follow the SMILES beside them. Trimesoyl = O=C(c1cc(C(=O)[*:2])cc(C(=O)[*:3])c1)[*:1]; Phe(4-F) = N[C@@H](Cc1ccc(F)cc1)C(=O)O; 2Nal = N[C@@H](Cc1ccc2ccccc2c1)C(=O)O; Pip = O=C(O)[C@@H]1CCCCN1; Dap = NC[C@H](N)C(=O)O; Sar = CNCC(=O)O

As for `N=C(N)NCCC[C@H](NC(=O)[C@H](CCCNC(=N)N)NC(=O)[C@H](CCCNC(=N)N)NC(=O)[C@H](CCCNC(=N)N)NC(=O)[C@H](CCCNC(=N)N)NC(=O)[C@H](CCCNC(=N)N)NC(=O)[C@H](CCCNC(=N)N)NC(=O)[C@H](CCCNC(=N)N)NC(=O)[C@@H](N)CCCNC(=N)N)C(N)=O` [Peptide R9], the half-life – broadly, how long it takes for the measured level to halve – at 50 μM in data set [1] is approximately 30 min.
In the case of `C[C@@H]1NC(=O)[C@H](CCCNC(=N)N)NC(=O)[C@H](Cc2ccc3ccccc3c2)NC(=O)[C@@H]2CCCCN2C(=O)[C@@H]([C@H](C)O)NC(=O)CN(C)C(=O)[C@@H](C)NC(=O)c2cc3cc(c2)C(=O)NC[C@H](NC(=O)[C@@H](C)NC1=O)C(=O)N[C@@H](Cc1ccccc1)C(=O)N[C@@H](Cc1ccc2ccccc2c1)C(=O)N[C@@H](CCCNC(=N)N)C(=O)N[C@@H](CCCNC(=N)N)C(=O)N[C@@H](CCCNC(=N)N)C(=O)N[C@@H](CCCNC(=N)N)C(=O)N[C@H](C(=O)N[C@@H](CCCCN)C(N)=O)CNC3=O` [Peptide 2, bicyclo[Tm-(D-Ala-Sar-D-Thr-Pip-Nal-Arg-Ala-D-Ala)-Dap-(Phe-Nal-Arg-Arg-Arg-Arg-Dap)]-Lys] ([dA][Sar][dT][Pip][2Nal]RA[dA][Dap]F[2Nal]RRRR[Dap]K-NH2; linker N-9-16 via Trimesoyl), on PTP1B, the Ki worked out at 0.054 µM. At Pin1 [2], the “Reduction of potency vs inhibitor 7” value is approximately 10 fold. Also, the dissociation constant Kd (in general, the free concentration of one partner at which half of the binding sites on the other are occupied at equilibrium, for simple one-to-one binding) on Pin1 [3] was 0.62 µM.
In the case of `N=C(N)NCCC[C@H](NC(=O)[C@H](CCCNC(=N)N)NC(=O)[C@H](CCCNC(=N)N)NC(=O)[C@H](CCC(N)=O)NC(=O)[C@H](CCCNC(=N)N)NC(=O)[C@H](CCCNC(=N)N)NC(=O)[C@H](CCCCN)NC(=O)[C@H](CCCCN)NC(=O)[C@H](CCCNC(=N)N)NC(=O)CNC(=O)[C@@H](N)Cc1ccc(O)cc1)C(N)=O` [Tat], the half-life in data set [1] was approximately 30 min.
With `C[C@@H]1NC(=O)[C@H](CCCNC(=N)N)NC(=O)[C@H](Cc2ccc3ccccc3c2)NC(=O)[C@@H]2CCCCN2C(=O)[C@@H](CC(=O)O)NC(=O)CN(C)C(=O)[C@@H]2CCCN2C(=O)c2cc3cc(c2)C(=O)NC[C@H](NC(=O)[C@@H](C)NC1=O)C(=O)N[C@@H](Cc1ccccc1)C(=O)N[C@@H](Cc1ccc2ccccc2c1)C(=O)N[C@@H](CCCNC(=N)N)C(=O)N[C@@H](CCCNC(=N)N)C(=O)N[C@@H](CCCNC(=N)N)C(=O)N[C@@H](CCCNC(=N)N)C(=O)N[C@H](C(=O)N[C@@H](CCCCN)C(N)=O)CNC3=O` [Peptide 3, bicyclo[Tm-(Pro-Sar-D-Asp-Pip-Nal-Arg-Ala-D-Ala)-Dap-(Phe-Nal-Arg-Arg-Arg-Arg-Dap)]-Lys] (P[Sar][dD][Pip][2Nal]RA[dA][Dap]F[2Nal]RRRR[Dap]K-NH2; linker N-9-16 via Trimesoyl), the “Fluorescence increase (released Amc)” value with Jurkat cells is listed as “little fluorescence increase”.
Still for that read-out and setting: the same measure for `C[C@@H]1NC(=O)[C@H](CCCNC(=N)N)NC(=O)[C@H](Cc2ccc3ccccc3c2)NC(=O)[C@@H]2CCCCN2C(=O)[C@@H]([C@H](C)O)NC(=O)[C@H](Cc2ccc(F)cc2)NC(=O)[C@@H](Cc2ccccc2)NC(=O)c2cc3cc(c2)C(=O)NC[C@H](NC(=O)[C@@H](C)NC1=O)C(=O)N[C@@H](Cc1ccccc1)C(=O)N[C@@H](Cc1ccc2ccccc2c1)C(=O)N[C@@H](CCCNC(=N)N)C(=O)N[C@@H](CCCNC(=N)N)C(=O)N[C@@H](CCCNC(=N)N)C(=O)N[C@@H](CCCNC(=N)N)C(=O)N[C@H](C(=O)N[C@@H](CCCCN)C(N)=O)CNC3=O` [Peptide 4, bicyclo[Tm-(D-Phe-Fpa-D-Thr-Pip-Nal-Arg-Ala-D-Ala)-Dap-(Phe-Nal-Arg-Arg-Arg-Arg-Dap)]-Lys] ([dF][Phe(4-F)][dT][Pip][2Nal]RA[dA][Dap]F[2Nal]RRRR[Dap]K-NH2; linker N-9-16 via Trimesoyl; C-terminus assumed): 459 FU.
For the molecule “fluorescein isothiocyanate [FITC, reference compound]”, in the data set with HeLa cells, the “Mean fluorescence intensity (MFI), total intracellular FITC fluorescence” value is given as 1200 arbitrary units (AU).
